From US12042499B2, “Administration of aurora kinase inhibitor and chemotherapeutic agents” (Millennium Pharmaceuticals, Inc., priority 2015, dated 2024)

Columns and labels:
Assay type in all cases: in vivo, female Athymic NCr nu/nu mice
[1] = tested on: NCI-H82 small cell lung tumor; assay: NCI-H82 xenograft model study 1: alisertib and carboplatin
Protocol: NCI-H82 1: […] Those animals selected with tumors in the proper volume range were randomized into 9 treatment and control groups (n=10/group) so that the median tumor volumes on the first day of treatment were as close as possible (206-219 mm^3). […] The suspension was diluted to 4 mg/mL with 2% sodium bicarbonate (NaHCO3) in WFI. The final composition of the alisertib vehicle was 10% HPBCD/1% NaHCO3 in WFI. The 4 mg/mL solution was diluted to 2 mg/mL with complete vehicle for the lower dose. The alisertib dosing formulations were stored in brown bottles at room temperature during the dosing period. […] A 10 mg/mL stock solution of carboplatin (Hospira, Inc.) was diluted each day of treatment with saline. […] Tumors were measured twice weekly using vernier calipers. […] Tumor size and body weight were measured approximately twice a week for the duration of the study. […] Tumor growth continued to be monitored after the dosing period in some studies. […] For each animal, the log tumor volume at the day of treatment initiation is subtracted from the log tumor volume on the subsequent days. This difference vs. time is used to calculate an area under the curve (AUC) for each animal using the trapezoid rule. In instances when an animal in a treatment group is removed early from the study, the last observed tumor value is carried forward through all subsequent time points. The synergy score for the combination of agents A and B is defined as 100*(mean(AUCAB)-mean(AUCA)-mean(AUCB)+mean(AUCctl))/mean(AUCctl): where AUCAB, AUCA, AUCB, and AUCctl are the AUC values for animals in the combination group, the A group, the B group, and the control group, respectively. The standard error of the synergy score is computed based on the variation in the AUC values among the animals. […] If the P-value is above 0.05, then the combination is considered to be additive. If the P-value is below 0.05, and the synergy score is less than zero, then the combination is considered to be synergistic. If the P-value is below 0.05 and the synergy score was greater than zero, but the mean AUC for the combination was […] than the lowest mean AUC among the two single agent treatments, then the combination was sub-additive. If the P-value is below 0.05 and if the synergy score was greater than zero, and the mean AUC for the combination was greater than the mean AUC for at least one of the single agent treatments, then the combination was antagonistic. […] In the combination treatment groups alisertib was administered first, followed immediately by the administration of carboplatin. One group served as a vehicle-treated control group (Group 1) receiving PO treatment with the vehicle used for administration of alisertib in treatment groups on a QDx21 schedule.

[2] = tested on: NCI-H82 small cell lung tumor; assay: NCI-H82 xenograft model study 2: alisertib and cisplatin
Excerpt: NCI-H82 2: A thirty-to-forty mg fragment of NCI-H82 small cell lung tumor, propagated in an in vivo passage, was implanted SC in the area of the right flank of female Athymic NCr nu/nu mice (age 5 weeks, Charles River Laboratories, Wilmington, MA) using a 12-gauge trocar needle. Tumors were allowed to reach 100-245 mm^3 in volume before the start of treatment. A sufficient number of mice were implanted so that tumors in a volume range as narrow as possible were selected for the trial on the day of treatment initiation (day 14 after tumor implantation, designated as SD, or Day 0). Those animals selected with tumors in the proper volume range were randomized into 9 treatment and control groups (n=10/group) so that the median tumor volumes on the first day of treatment were as close as possible (196-198 mm^3).
(§1) An 8 mg/mL suspension of alisertib was formulated weekly by adding a half volume of 20% HPBCD in water for injection (WFI) to the alisertib powder, then mixing by vortexing, and sonicating for one minute. The suspension was diluted to 4 mg/mL with 2% sodium bicarbonate (NaHCO3) in WFI. The final composition of the alisertib vehicle was 10% HPBCD/1% NaHCO3 in WFI. The 4 mg/mL solution was diluted to 2 mg/mL with complete vehicle for the lower dose. The alisertib dosing formulations were stored in brown bottles at room temperature during the dosing period. All alisertib injections were administered on the basis of exact animal body weight on each day of treatment, using an injection volume of 0.05 mL/10 g body weight.
(§2) A 1 mg/mL stock solution of cisplatin (Cisplatin Injection, PCH […]) was diluted each day of treatment with saline to 0.8 and 0.4 mg/mL. Cisplatin injections were administered on the basis of exact animal body weight on each day of treatment, using an injection volume of 0.05 mL/10 g body weight.
(§3) Tumors were measured twice weekly using vernier calipers. Tumor volumes were calculated using standard procedures V=W^2×L/2). When mean tumor volumes reached approximately 206-219 mm^3 for NCI-H82 1, 196-198 mm^3 for NCI-H82 2, or 169-174 mm^3 for NCI-H69, mice were randomized into groups of n=10/arm as described in the tables below, and injected with vehicle, alisertib or agents (cisplatin, or carboplatin), or the combination of alisertib plus one of the agents, at various doses and schedules as described below in Tables 1a, 2a and 3a. Tumor size and body weight were measured approximately twice a week for the duration of the study. […] Tumor growth continued to be monitored after the dosing period in some studies. […]
(§4) Measurements from the day of treatment initiation to Day 20 or Day 21 following treatment initiation are analyzed as specified in Tables below. […]

[3] = tested on: NCI-H69 small cell lung tumor; assay: NCI-H69 xenograft model: alisertib and cisplatin
Excerpt: NCI-H69: A thirty-to-forty mg fragment of NCI-H69 small cell lung tumor, propagated in an in vivo passage, was implanted SC in the area of the right flank of female Athymic NCr nu/nu nice (age 6 weeks, Charles River Laboratories, Frederick, MD) using a 12-gauge trocar needle. Tumors were allowed to reach 100-245 mm^3 in volume before the start of treatment. A sufficient number of mice were implanted so that tumors in a volume range as narrow as possible were selected for the trial on the day of treatment initiation (day 24 after tumor implantation, designated as SD, or Day 0). Those animals selected with tumors in the proper volume range were randomized into 9 treatment and control groups (n=10/group) so that the mean tumor volumes on the first day of treatment were as close as possible (169-174 mm^3).
as §1, §2, §3, §4

## COc1cc(Nc2ncc3c(n2)-c2ccc(Cl)cc2C(c2c(F)cccc2OC)=NC3)ccc1C(=O)O [Alisertib, 4-{[9-chloro-7-(2-fluoro-6-methoxyphenyl)-5H-pyrimido[5,4-d][2]benzazepin-2-yl]amino}-2-methoxybenzoic acid]
[1]; 10 mg/kg Alisertib QDx21 PO
  Tumor Volume Day 21: 1701 mm^3
[1]; 20 mg/kg Alisertib QDx21 PO
  Tumor Volume Day 21: 1640 mm^3
[2]; 10 mg/kg Alisertib QDx21 PO
  Tumor Volume Day 20: 1578 mm^3
[2]; 20 mg/kg Alisertib QDx21 PO
  Tumor Volume Day 20: 1461 mm^3
[3]; 10 mg/kg Alisertib QDx21 PO
  Tumor Volume Day 20: 374 mm^3
[3]; 20 mg/kg Alisertib QDx21 PO
  Tumor Volume Day 20: 149 mm^3

## N.N.O=C([O-])C1(C(=O)[O-])CCC1.[Pt+2] [Carboplatin, carboplatin]
[1]; 25 mg/kg Carboplatin Q7Dx3 IP
  Tumor Volume Day 21: 1373 mm^3
[1]; 75 mg/kg Carboplatin Q7Dx3 IP
  Tumor Volume Day 21: 965 mm^3

## N.N.[Cl][Pt][Cl] [Cisplatin, cisplatin]
[2]; 2 mg/kg Cisplatin Q4Dx3 IP
  Tumor Volume Day 20: 1429 mm^3
[2]; 4 mg/kg Cisplatin Q4Dx3 IP
  Tumor Volume Day 20: 1270 mm^3
[3]; 2 mg/kg Cisplatin Q4Dx3 IP
  Tumor Volume Day 20: 604 mm^3
[3]; 4 mg/kg Cisplatin Q4Dx3 IP
  Tumor Volume Day 20: 300 mm^3
